Experimental data as given in patent publication US9340532B2, “Methods and compositions for inhibiting CNKSR1” (PHUSIS THERAPEUTICS, INC., priority 2012, dated 2016).
Like-named read-outs stand apart in the source and are kept apart here.

Assays:
CNK1 PH-domain (CNKSR1) = target: T1, CNK1 PH-domain (CNKSR1) (Homo sapiens, UniProt Q969H4); experiment: SPR binding assay (Biacore T100), CNK1 PH-domain; settings: for Surface Plasmon Resonance CNKSR1 binding (RU max) / Surface Plasmon Resonance CNKSR1 stability (RU max post-injection): date 12 09 13
T1 construct: The PH-domain His-fusion proteins (CNK1 and AKT1) were expressed and immobilized on a NTA chip; made in house
T1 sequence (Q969H4 403-502 limits assumed): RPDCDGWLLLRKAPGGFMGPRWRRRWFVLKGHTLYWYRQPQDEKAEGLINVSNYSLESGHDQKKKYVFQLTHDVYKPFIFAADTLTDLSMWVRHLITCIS
Protocol: (§1) All interaction analyses were done with a Biacore T100 Control Software v3.2, and BIAevaluation v4.1 analysis software (Biacore). The PH-domain His-fusion proteins (CNK1 and AKT1) were expressed and immobilized on a NTA chip to a level of 10,000 response units or less. Small molecule analytes at concentrations ranging from 50 μM to 0.010 μM were injected at a high flow rate (30 μL/min) DMSO concentrations in all samples and running buffer were 1-5% (v/v).
Other docking was performed using modeling algorithms with state-of-the-art commercial drug discovery software (Schrodinger suite). […] Additionally, ligand-based approaches provided an alternative to structure based drug discovery. Ligand-based virtual screening methodologies can take into account shape and electrostatics (like ROCS) and the pharmacophoric features (acceptor, donor, hydrophobic, aromatic, etc.) of its functional groups. […] SPR interaction analyses of all other compounds was undertaken using a Biacore T100 with Control and Evaluation software kit.

AKT1 PH-domain = target: T2, AKT1 PH-domain (Homo sapiens, UniProt P31749); experiment: SPR binding assay (Biacore T100), AKT1 PH-domain; settings: read-out: AKT KD
T2 construct: The PH-domain His-fusion proteins (CNK1 and AKT1) were expressed and immobilized on a NTA chip; made in house
Protocol: as §1
A commercially available docking package, GOLD (GOLD [3.2], CCDC: Cambridge, UK, 2007) was used to evaluate the docking of compounds 1-7 into the binding pocket, see e.g. Table 5. Other docking was performed using modeling algorithms with state-of-the-art commercial drug discovery software (Schrodinger suite). GLIDE was chosen as the docking algorithm used to select and optimize compounds, providing a GlideScore as a rough estimate of binding affinity that was used to rank and select the best compounds. Additionally, ligand-based approaches provided an alternative to structure based drug discovery. Ligand-based virtual screening methodologies can take into account shape and electrostatics (like ROCS) and the pharmacophoric features (acceptor, donor, hydrophobic, aromatic, etc.) of its functional groups. Inositol tetraphosphate (IP4) binding to the PH-domain of CNKSR1 provided a good starting point for shape screening. Both structure-based and ligand-based approaches were used to find novel compounds (Table 7) and to refine and improve lead compounds (Tables 8, and 9). SPR interaction analyses for Compounds 1 through 7 were performed with a Biacore 2000, using Biacore2000 Control Software v3.2 and BIAevaluation v4.1 analysis software (Biacore) as described in Mol Cancer Ther 7:2621 (2008). SPR interaction analyses of all other compounds was undertaken using a Biacore T100 with Control and Evaluation software kit.

[1] = tested on: H1975 (KRAS wildtype cell line); experiment: Proliferation Assay H1975; type: cell-based; settings: Homo sapiens, NCI-H1975, n = 1
Protocol: (§2) The isogenic KRAS lines harboring G12D, G12C, and G12V were obtained from Horizon Discovery labs on a one year lease. These cells were cultured in McCoys media with 10% FBS to 80% confluency. Cells were then released from flasks via trypsinization and plated into 96-well plates at an initial density range of 2000 cells per well. Cells were allowed 24 hours to attach, and then the agents were added to the culture media at a range of concentrations from 0-100 μM. Cells were incubated for 72 hours with the drugs, and then viability was assessed using an MTS viability assay. Cells were exposed to MTS reagent (Promega) dissolved in PBS (Hyclone) at a concentration of 200 μL reagent/mL media for 2 hours. Absorbance was then read at 490 nm, and viability was expressed as a percentage normalized between the negative control (no cells plated) and the condition of cells with no drug added (100% viability) normalized as the upper limit of viability.
(§3) Our panel of 30 cell lines and an extensive characterization were obtained from Dr. John Minna (UTSW). All cell lines were cultured in RPMI 1640 with 10% FBS. Cells were treated with concentrations of agents at concentrations 0.01 to 50 μM and evaluated as described above. IC50's were determined using Excelfit.

[2] = tested on: H226 (KRAS wildtype cell line); experiment: Proliferation Assay H226; type: cell-based; settings: Homo sapiens, NCI-H226, n = 1
Protocol: as §2, §3

[3] = tested on: A549 (KRAS mutant cell line); experiment: Proliferation Assay A549; type: cell-based; settings: Homo sapiens, N = 2 experiments
Protocol: as §2, §3

[4] = tested on: H1373 (KRAS mutant cell line); experiment: Proliferation Assay H1373; type: cell-based; settings: Homo sapiens, NCI-H1373, N = 2 experiments
Protocol: as §2, §3

[5] = Mouse pharmacokinetics (iv); type: in vivo; settings: for clearance: in vivo
[6] = tested on: mut-KRAS NSCLC cell lines; experiment: Screening against NSCLC cell line panel, mut-KRAS lines; type: cell-based; settings: Table 5; read-out: Mean IC50 mut-KRAS
Protocol: as §2, §3

T2 sequence (P31749 5-108 limits assumed): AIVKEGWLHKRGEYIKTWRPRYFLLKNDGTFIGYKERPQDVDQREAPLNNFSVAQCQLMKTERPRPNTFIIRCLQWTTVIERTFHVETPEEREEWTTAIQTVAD

Compound | Kd (CNK1 PH-domain (CNKSR1); Table 6, read-out: CNKS KD) [µM] | Surface Plasmon Resonance CNKSR1 binding (RU max) (CNK1 PH-domain (CNKSR1)) [RU * 100/Da] | Surface Plasmon Resonance CNKSR1 stability (RU max post-injection) (CNK1 PH-domain (CNKSR1)) [RU * 100/Da] | Kd (AKT1 PH-domain; Table 6) [µM] | IC50 [1] [µM] | IC50 [2] [µM] | IC50 [3] [µM] | IC50 [4] [µM] | t1/2β [5] [h] | clearance [5] [mL/min/kg] | Kd (CNK1 PH-domain (CNKSR1); Table 8, read-out: CNK KD) [µM] | Kd (AKT1 PH-domain; Table 8) [µM] | IC50 [6] [µM]
Cc1ccc(-c2csc(Cn3nc(NS(=O)(=O)c4cccs4)c4ccccc4c3=O)n2)cc1 [Compound 5] | 51.3 | −0.695 | −0.158 | 34.2 | 80 | > 100 | 90 | > 100 | – | – | – | – | –
Cc1ccc(-c2csc(Cn3nc(CC=O)c4ccccc4c3=O)n2)cc1 [Compound 79] | 4.2 | – | – | – | – | – | – | – | 0.583 | 30 | – | – | –
CCOC(=O)CCc1cc(NS(=O)(=O)c2cccs2)c2c(c1OC)OCO2 [Compound 85, ethyl 3-(4-methoxy-7-(thiophene-2-sulfonamido)benzo[d][1,3]dioxol-5-yl)propanoate] | – | 1.026 | 1.515 | – | > 100 | > 100 | > 100 | > 100 | – | – | > 500 | > 500 | –
CCOC(=O)/C=C/c1cc(NS(=O)(=O)c2cccs2)c2c(c1OC)OCO2 [Compound 86, (E)-ethyl 3-(4-methoxy-7-(thiophene-2-sulfonamido)benzo[d][1,3]dioxol-5-yl)acrylate] | – | −0.807 | −0.197 | – | > 100 | > 100 | > 100 | > 100 | – | – | 123 | > 500 | –
COc1cc(NS(=O)(=O)c2cccs2)c(SC)c(/C=C/C(=O)O)c1O [Compound 104, (2E)-3-[2-hydroxy-3-methoxy-6-(methylsulfanyl)-5-(thiophene-2-sulfonamido)phenyl]prop-2-enoic acid] | – | 2.132 | 2.049 | – | > 100 | 75 | 60 | 82 | – | – | 1.56 | 4.8 | –
CCOC(=O)/C=C/c1c(O)c(O)cc(NS(=O)(=O)c2cccs2)c1SC [Compound 105, ethyl (2E)-3-[2,3-dihydroxy-6-(methylsulfanyl)-5-(thiophene-2-sulfonamido)phenyl]prop-2-enoate] | – | −0.676 | −0.197 | – | > 100 | 70 | 100 | 42 | – | – | 2.86 | 6.22 | –
CSc1c(NS(=O)(=O)c2cccs2)cc(O)c(O)c1/C=C/C(=O)O [Compound 106, (2E)-3-[2,3-dihydroxy-6-(methylsulfanyl)-5-(thiopliene-2-sulfonamido)phenyl]prop-2-enoic acid] | – | −0.928 | 0.511 | – | > 100 | 70 | 55 | 58 | – | – | 0.614 | 13.5 | –
CCOC(=O)/C=C/c1c(O)c(OC)cc(N)c1SC [Compound 107, ethyl (E)-3-(5-amino-2-hydroxy-3-methoxy-6-methylsulfanylphenyl)prop-2-enoate] | – | −0.174 | −0.083 | – | 95 | 60 | 45 | 45 | – | – | 125 | 286 | –
COc1cc(N)c(SC)c(/C=C/C(=O)O)c1O [Compound 108, (2E)-3-[3-amino-6-hydroxy-5-methoxy-2-(methylsulfanyl)phenyl]prop-2-enoic acid] | – | −0.024 | 0.056 | – | 100 | 55 | 30 | 38 | – | – | 72.5 | 133 | –
CCOC(=O)/C=C/c1c(O)c(O)cc(N)c1SC [Compound 109, ethyl (2E)-3-[3-amino-5,6-dihydroxy-2-(methylsulfanyl)phenyl]prop-2-enoate] | – | 1.527 | 0.168 | – | > 100 | > 100 | > 100 | > 100 | – | – | 19.2 | 140 | –
CSc1c(N)cc(O)c(O)c1/C=C/C(=O)O [Compound 110, (2E)-3-[3-amino-5,6-dihydroxy-2-(methylsulfanyl)phenyl]prop-2-enoic acid] | – | 0.217 | 0.032 | – | > 100 | 65 | 27 | 28 | – | – | – | 178 | –
CSc1sc(C#N)c(C)c1-c1ccn(S(=O)(=O)c2ccc(Cl)cc2)n1 [Compound 117] | – | – | – | – | – | – | – | – | – | – | – | – | 21.9 ± 5.7
O=S(=O)(Nc1n[nH]c(SCc2ccc(Cl)cc2)n1)c1ccc(-c2ccccn2)s1 [Compound 118] | – | – | – | – | – | – | – | – | – | – | – | – | 49.3 ± 0.6
Cn1c(Cc2nn(C)c(=O)c3ccccc23)nnc1SCC(=O)c1ccc(Cl)cc1Cl [Compound 119] | – | – | – | – | – | – | – | – | – | – | – | – | > 50
O=C(CSc1nnnn1-c1cccc(Cl)c1)c1cc2ccccc2o1 [Compound 121] | – | – | – | – | – | – | – | – | – | – | – | – | 46.7 ± 3.3
N#Cc1cnn(-c2ccccc2)c1NC(=O)CSc1nnc(-c2ccco2)n1-c1ccc(F)cc1 [Compound 122] | – | – | – | – | – | – | – | – | – | – | – | – | > 50
Cc1ccc(-c2csc(Cn3nc(CC(=O)N4CCN(C)CC4)c4ccccc4c3=O)n2)cc1 [Compound 123] | – | – | – | – | – | – | – | – | 5.45 | 31 | – | – | –
